Data published in PubChem BioAssay AID2060884 (Molecular Pharmacology Branch, DTP, NCI, 2025).

System: NCI-H929 complex spheroids, viability % test/control
Test: Anticancer human tumor NCI-H929 cell line growth inhibition [RAS];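 note: compound exposure lasted seven days before viability was read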
Details: for IC50: curve of first compound; for viability, T/C: stronger effect = lower value
From the text: RAS pathway inhibitors in Combinations in Complex Spheroids
A high-throughput screen of multi-cell type tumor spheroids was designed to identify active combinations of RAS pathway inhibitors and targeted small molecules. Complex spheroids include a stromal component modeled by human endothelial cells (HUVEC) and fibroblasts modeled by human mesenchymal stem cells (MSCs). The concentration ranges selected for each drug and investigational agent were based upon clinically achievable concentrations if the clinical Cmax of the agent was known.
Compounds. The drugs and investigational agents: abemaciclib (NSC768073), cobimetinib (NSC768068), divarasib (GDC6063, NSC841802), docetaxel (NSC628503), GDC-1971 (RLY-1971, NSC841576), gemcitabine (NSC613327), inavolisib (NSC800729), ipatasertib (NSC767898), KB-0742 (NSC834161), MRTX-1133 (NSC836407), osimertinib (NSC779217), RMC-4630 (NSC839698), RMC-6236 (NSC851965), RMC-6291 (NSC852671), Ro-3306 (NSC812927), sapanisertib (NSC764658), SN-38 (NSC673596), staurosporine (NSC755774), SY5609 (NSC837396), and tovorafenib (DAY101, NSC766906), were obtained from the National Cancer Institute (NCI) Developmental Therapeutics Program Chemical Repository. The FDA-approved anticancer drug set is available from the NCI Developmental Therapeutics Program. […] The stock solutions were prepared in dimethyl sulfoxide (DMSO, Sigma-Aldrich, St. Louis, MO, cat. D2650) at 800-fold the tested concentration and stored at -70 degrees C prior to their use. All drugs and investigational agents were tested over a range starting from a high concentration at or near the clinical Cmax and decreasing in half-log increments. If the clinical Cmax for an agent had not been determined, the highest concentration tested was 10 microM.
Cell Culture. All cells were maintained in an incubator at 37 degrees C and 5% CO2 with 95% humidity. The PDC lines were cultured according to standard operating procedures established by the NCI PDMR. All PDCs were thawed and cultured in Matrigel-coated flasks prepared with a working solution of 1X Ham's F-12 nutrient mix, without supplementation (Invitrogen, Waltham, MA, cat. 11765054), 100 U/mL penicillin-streptomycin (Invitrogen, cat. 15140122), and 2.5% Matrigel (Corning Inc., Corning, NY, cat. 354248) for the first three passages. The 362531-283-R-J2-PDC and 782815-120-R-J1-PDC lines were cultured in 6C/Colon 1B media, which includes advanced DMEM/F-12 (Thermo Fisher Scientific, cat. 12634028), 10 mM HEPES (Thermo Fisher Scientific, cat. 15630080), 1X GlutaMAX supplement (Thermo Fisher Scientific, cat. 35050061), 0.1 mg/mL primocin (InvivoGen, San Diego, CA, cat. ant-pm-2), 10% defined fetal bovine serum, heat inactivated (HyClone Laboratories Inc., Logan, UT, cat. SH30070.03HI), 50% L-WRN conditioned media (ATCC, cat. CRL-3276), 1.25 mM N-Acetyl-L-cysteine (Sigma-Aldrich, cat. A9165), 10 mM nicotinamide (Sigma-Aldrich, cat. N0636), 1X B-27 supplement (Thermo Fisher Scientific, cat. 17504044), 1X N-2 supplement (Thermo Fisher Scientific, cat. 17502048), 50 ng/mL human EGF (Thermo Fisher Scientific, cat. PHG0311), and 10 microM Y-27632 dihydrochloride (Tocris Bioscience, cat. 1254). The K12877-001-R-J1-PDC line was cultured in 6I media, which includes all 6C/Colon 1B media plus 10 ng/mL human FGF-10 (PeproTech, cat. 100-26), 1 ng/mL human FGF-2 (PeproTech, cat. 100-18B), 1 µM prostaglandin E2 (Tocris Bioscience, cat. 2296), […] hydrocortisone (Sigma-Aldrich, cat. H4001), and […] bovine insulin (Sigma-Aldrich, cat. I6634). The K86415-001-R-J1-PDC line was cultured in 6D media, which includes all 6C/Colon 1B media components minus the L-WRN conditioned media. The 485176-168-R4-J1-PDC was cultured in PANC media, which includes all 6C/Colon 1B media plus 100 ng/mL human FGF-10 (PeproTech, cat. 100-26), 500 nM SB-431542 (Selleckchem, cat. S1067), and 10 nM gastrin (Tocris Bioscience, cat. 3006). […]

[1] = second compound 0.0316 µM, first compound 0.0316 µM
[2] = second compound 0.0316 µM, first compound 0.1 µM
[3] = second compound 0.0316 µM, first compound 0.316 µM
[4] = second compound 0.0316 µM, first compound 1 µM
[5] = second compound 0.0316 µM, first compound 3.16 µM
[6] = second compound 0.0316 µM, first compound 10 µM
[7] = second compound 0.1 µM, first compound 0.0316 µM
[8] = second compound 0.1 µM, first compound 0.1 µM
[9] = second compound 0.1 µM, first compound 0.316 µM
[10] = second compound 0.1 µM, first compound 1 µM
[11] = second compound 0.1 µM, first compound 3.16 µM
[12] = second compound 0.1 µM, first compound 10 µM
[13] = second compound 0.316 µM, first compound 0.0316 µM
[14] = second compound 0.316 µM, first compound 0.1 µM
[15] = second compound 0.316 µM, first compound 0.316 µM
[16] = second compound 0.316 µM, first compound 1 µM
[17] = second compound 0.316 µM, first compound 3.16 µM
[18] = second compound 0.316 µM, first compound 10 µM
[19] = second compound 1 µM, first compound 0.0316 µM
[20] = second compound 1 µM, first compound 0.1 µM
[21] = second compound 1 µM, first compound 0.316 µM
[22] = second compound 1 µM, first compound 1 µM
[23] = second compound 1 µM, first compound 3.16 µM
[24] = second compound 1 µM, first compound 10 µM
[25] = second compound 3.16 µM, first compound 0.0316 µM
[26] = second compound 3.16 µM, first compound 0.1 µM
[27] = second compound 3.16 µM, first compound 0.316 µM
[28] = second compound 3.16 µM, first compound 1 µM
[29] = second compound 3.16 µM, first compound 3.16 µM
[30] = second compound 3.16 µM, first compound 10 µM
[31] = second compound 10 µM, first compound 0.0316 µM
[32] = second compound 10 µM, first compound 0.1 µM
[33] = second compound 10 µM, first compound 0.316 µM
[34] = second compound 10 µM, first compound 1 µM
[35] = second compound 10 µM, first compound 3.16 µM
[36] = second compound 10 µM, first compound 10 µM

CC(C)NCC(C(=O)N1CCN(c2ncnc3c2C(C)CC3O)CC1)c1ccc(Cl)cc1 (stereo unspecified) + C#Cc1c(F)ccc2cc(O)cc(-c3ncc4c(N5CC6CCC(C5)N6)nc(OCC56CCCN5CC(F)C6)nc4c3F)c12
IC50 (second compound 0.0316 µM): 4580 nM
IC50 (second compound 0.1 µM): 3050 nM
IC50 (second compound 0.316 µM): 3320 nM
IC50 (second compound 1 µM): 3810 nM
IC50 (second compound 3.16 µM): 2830 nM
IC50 (second compound 10 µM): 1590 nM
viability, T/C [1]: 105%
viability, T/C [2]: 105%
viability, T/C [3]: 111%
viability, T/C [4]: 102%
viability, T/C [5]: 66%
viability, T/C [6]: 16.3%
viability, T/C [7]: 96.9%
viability, T/C [8]: 105%
viability, T/C [9]: 109%
viability, T/C [10]: 104%
viability, T/C [11]: 48.3%
viability, T/C [12]: 14.1%
viability, T/C [13]: 96.2%
viability, T/C [14]: 101%
viability, T/C [15]: 108%
viability, T/C [16]: 106%
viability, T/C [17]: 51.6%
viability, T/C [18]: 13.6%
viability, T/C [19]: 98.4%
viability, T/C [20]: 101%
viability, T/C [21]: 108%
viability, T/C [22]: 108%
viability, T/C [23]: 58%
viability, T/C [24]: 7.88%
viability, T/C [25]: 97.7%
viability, T/C [26]: 103%
viability, T/C [27]: 107%
viability, T/C [28]: 106%
viability, T/C [29]: 44.2%
viability, T/C [30]: 9.12%
viability, T/C [31]: 94.2%
viability, T/C [32]: 92.1%
viability, T/C [33]: 101%
viability, T/C [34]: 67.5%
viability, T/C [35]: 21.9%
viability, T/C [36]: 2.52%

CC1(O)CCCC1n1c(=O)c(C(F)F)cc2cnc(NC3CCN(S(C)(=O)=O)CC3)nc21 (stereo unspecified) + C#Cc1c(F)ccc2cc(O)cc(-c3ncc4c(N5CC6CCC(C5)N6)nc(OCC56CCCN5CC(F)C6)nc4c3F)c12
IC50 (second compound 0.0316 µM): 190 nM
IC50 (second compound 0.1 µM): 191 nM
IC50 (second compound 0.316 µM): 194 nM
IC50 (second compound 1 µM): 193 nM
IC50 (second compound 3.16 µM): 183 nM
IC50 (second compound 10 µM): 105 nM
viability, T/C [1]: 112%
viability, T/C [2]: 106%
viability, T/C [3]: 5.76%
viability, T/C [4]: 10.1%
viability, T/C [5]: 3.99%
viability, T/C [6]: 0.89%
viability, T/C [7]: 104%
viability, T/C [8]: 108%
viability, T/C [9]: 5.96%
viability, T/C [10]: 11.6%
viability, T/C [11]: 3.51%
viability, T/C [12]: 0.63%
viability, T/C [13]: 105%
viability, T/C [14]: 112%
viability, T/C [15]: 6.91%
viability, T/C [16]: 13.5%
viability, T/C [17]: 4.01%
viability, T/C [18]: 0.21%
viability, T/C [19]: 107%
viability, T/C [20]: 109%
viability, T/C [21]: 6.21%
viability, T/C [22]: 11.2%
viability, T/C [23]: 3.72%
viability, T/C [24]: 0.45%
viability, T/C [25]: 114%
viability, T/C [26]: 99%
viability, T/C [27]: 6%
viability, T/C [28]: 12.5%
viability, T/C [29]: 2.73%
viability, T/C [30]: 0.21%
viability, T/C [31]: 97.9%
viability, T/C [32]: 51.8%
viability, T/C [33]: 10.6%
viability, T/C [34]: 11.6%
viability, T/C [35]: 3.3%
viability, T/C [36]: 0.45%

CCN1CCN(Cc2ccc(Nc3ncc(F)c(-c4cc(F)c5nc(C)n(C(C)C)c5c4)n3)nc2)CC1 + C#Cc1c(F)ccc2cc(O)cc(-c3ncc4c(N5CC6CCC(C5)N6)nc(OCC56CCCN5CC(F)C6)nc4c3F)c12
IC50 (second compound 0.0316 µM): > 1000 nM
IC50 (second compound 0.1 µM): > 1000 nM
IC50 (second compound 0.316 µM): > 1000 nM
IC50 (second compound 1 µM): > 1000 nM
IC50 (second compound 3.16 µM): > 1000 nM
IC50 (second compound 10 µM): > 1000 nM
viability, T/C (second compound 0.0316 µM, first compound 0.00316 µM): 101%
viability, T/C (second compound 0.0316 µM, first compound 0.01 µM): 102%
viability, T/C [1]: 108%
viability, T/C [2]: 106%
viability, T/C [3]: 120%
viability, T/C [4]: 107%
viability, T/C (second compound 0.1 µM, first compound 0.00316 µM): 92.2%
viability, T/C (second compound 0.1 µM, first compound 0.01 µM): 99.1%
viability, T/C [7]: 103%
viability, T/C [8]: 107%
viability, T/C [9]: 118%
viability, T/C [10]: 110%
viability, T/C (second compound 0.316 µM, first compound 0.00316 µM): 96.6%
viability, T/C (second compound 0.316 µM, first compound 0.01 µM): 100%
viability, T/C [13]: 103%
viability, T/C [14]: 113%
viability, T/C [15]: 120%
viability, T/C [16]: 115%
viability, T/C (second compound 1 µM, first compound 0.00316 µM): 93.2%
viability, T/C (second compound 1 µM, first compound 0.01 µM): 102%
viability, T/C [19]: 109%
viability, T/C [20]: 113%
viability, T/C [21]: 117%
viability, T/C [22]: 112%
viability, T/C (second compound 3.16 µM, first compound 0.00316 µM): 97.8%
viability, T/C (second compound 3.16 µM, first compound 0.01 µM): 100%
viability, T/C [25]: 104%
viability, T/C [26]: 112%
viability, T/C [27]: 120%
viability, T/C [28]: 115%
viability, T/C (second compound 10 µM, first compound 0.00316 µM): 98.5%
viability, T/C (second compound 10 µM, first compound 0.01 µM): 100%
viability, T/C [31]: 99.2%
viability, T/C [32]: 109%
viability, T/C [33]: 118%
viability, T/C [34]: 57.3%
